Experimental data: patent US20170190705A1, “Compositions and Methods for Inhibiting BMP” (THE BRIGHAM AND WOMAN'S HOSPITAL, INC., priority 2014, published 2017)

Tests used:
[1] = target: T1, caALK4 (Homo sapiens, UniProt P36896); assay: Luciferase reporter assay constitutively active ALK4; conditions: read-out: Cell Based Assay caALK4 IC50
T1 sequence (P36896 1-505 T206D): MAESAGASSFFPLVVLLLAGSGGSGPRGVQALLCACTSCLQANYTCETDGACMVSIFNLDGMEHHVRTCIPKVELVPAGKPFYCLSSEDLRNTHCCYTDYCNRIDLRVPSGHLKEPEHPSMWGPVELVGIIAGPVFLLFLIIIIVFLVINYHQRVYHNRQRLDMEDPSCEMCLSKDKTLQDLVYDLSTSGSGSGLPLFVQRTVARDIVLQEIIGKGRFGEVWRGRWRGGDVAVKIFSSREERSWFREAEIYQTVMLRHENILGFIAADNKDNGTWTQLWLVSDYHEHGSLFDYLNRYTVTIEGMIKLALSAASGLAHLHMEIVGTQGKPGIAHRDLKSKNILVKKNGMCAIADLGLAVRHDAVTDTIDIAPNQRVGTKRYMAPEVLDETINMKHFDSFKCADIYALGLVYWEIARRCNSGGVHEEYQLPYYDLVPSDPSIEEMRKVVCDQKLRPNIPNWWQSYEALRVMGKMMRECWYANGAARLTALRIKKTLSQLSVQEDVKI
Description: C2Cl2 […] cells stably transfected with BMP responsive element from the Id promoter fused to luciferase reporter gene (BRE-Luc) were generously provided by Dr. Peter ten Dijke (Leiden University Medical Center, NL) following the methods described by Zilberberg et al., BMC cell biology 2007, 8, 41-50. Human embryonic kidney 293T cells stably transfected with the TGF-β responsive element from the PAI-1 promoter fused to luciferase reporter gene (CAGA-Luc) were generously provided by Dr. Howard Weiner (Brigham and Women's Hospital, Boston, Mass.) following the methods described by Oida et al., PloS one 2011, 6, e18365. C2Cl2 Bre-Luc and 293T CAGA-Luc cells were seeded in DMEM supplemented with 2% FBS at 20,000 cells per well in tissue culture treated 96-well plates (Costar® 3610; Corning). The cells were incubated for 1 h (37° C. and 10% CO2) and allowed to settle and attach. Compounds of interest or DMSO were diluted in DMEM and added at final compound concentrations of 1 nM to 10 μM. Cells were then incubated for 30 min. Adenovirus expressing constitutively active BMP and TGF-β type I receptors (Ad.caALK1-5), generously provided by Dr. Akiko Hata (University of to California at San Francisco), were added to achieve a multiplicity of infection (MOI) of 100. Plates were incubated overnight at 37° C. Cell viability was assayed with an MIT (3-(4,5-dimethylthiazol-2-yl)-2,5-diphenyl tetrazolium bromide) colorimetric assay (Promega) per the manufacturer's instructions. Media was discarded, and firefly luciferase activity was measured (Promega) according to manufacturer's protocol. Light output was measured using a Spectramax L luminometer (Molecular Devices) with an integration time of one second per well. Data was normalized to 100% of incremental BRE-Luc activity due to adenoviruses specifying caALK1, 2, or 3, or the incremental CAGA-Luc activity due to adenoviruses specifying caALK4 or 5.

[2] = target: T2, PRKD3 (Homo sapiens, UniProt O94806); assay: Kinome profiling PRKD3; type: biochemical; conditions: read-out: Inhibitory activity PRKD3; for inhibition at 0.1 µM: 100 nM
T2 sequence (O94806 1-890): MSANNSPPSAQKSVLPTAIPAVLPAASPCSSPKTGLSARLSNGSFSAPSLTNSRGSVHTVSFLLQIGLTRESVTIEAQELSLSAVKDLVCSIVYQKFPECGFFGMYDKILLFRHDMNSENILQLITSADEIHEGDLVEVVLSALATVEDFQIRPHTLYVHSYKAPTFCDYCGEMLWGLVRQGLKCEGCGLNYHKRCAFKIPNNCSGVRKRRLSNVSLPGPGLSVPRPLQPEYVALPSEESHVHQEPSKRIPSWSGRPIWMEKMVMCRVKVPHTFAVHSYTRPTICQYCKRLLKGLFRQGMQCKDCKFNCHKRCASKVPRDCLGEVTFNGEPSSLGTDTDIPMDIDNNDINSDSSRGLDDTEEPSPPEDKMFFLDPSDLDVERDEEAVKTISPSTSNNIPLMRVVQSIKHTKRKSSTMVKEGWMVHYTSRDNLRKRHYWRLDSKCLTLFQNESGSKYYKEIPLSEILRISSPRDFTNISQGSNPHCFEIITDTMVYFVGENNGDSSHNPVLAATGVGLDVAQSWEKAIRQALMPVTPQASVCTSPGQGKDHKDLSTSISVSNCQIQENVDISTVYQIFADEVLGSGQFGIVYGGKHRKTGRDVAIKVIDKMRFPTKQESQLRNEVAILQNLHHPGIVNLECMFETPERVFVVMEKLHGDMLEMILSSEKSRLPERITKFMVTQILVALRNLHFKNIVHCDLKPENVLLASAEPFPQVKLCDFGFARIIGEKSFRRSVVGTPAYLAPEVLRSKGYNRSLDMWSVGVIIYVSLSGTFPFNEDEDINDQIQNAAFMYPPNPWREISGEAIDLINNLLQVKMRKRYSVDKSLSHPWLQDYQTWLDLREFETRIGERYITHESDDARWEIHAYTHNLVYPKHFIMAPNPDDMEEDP
Description: (§1) . The kinome-wide selectivity was determined following the methods previously reported by Mohedas et al., ACS Chem Biol 2013, 8, 1291-1302 and Sanvitale et al., PLoS One 2013, 8, e62721.

[3] = target: BRAF (Homo sapiens, UniProt P15056); assay: Kinome profiling BRAF; type: biochemical; conditions: read-out: Inhibitory activity BRAF; for inhibition at 0.1 µM: 100 nM
Description: as §1

[4] = target: IRR (Homo sapiens, UniProt P14616); assay: Kinome profiling IRR; type: biochemical; conditions: read-out: Inhibitory activity IRR; for inhibition at 0.1 µM: 100 nM
Description: as §1

[5] = target: PI4-K-β (Homo sapiens, UniProt Q9UBF8); assay: Kinome profiling PI4-K-β; type: biochemical; conditions: read-out: Inhibitory activity PI4-K-β; for inhibition at 0.1 µM: 100 nM
Description: as §1

[6] = target: TYK2 (Homo sapiens, UniProt P29597); assay: Kinome profiling TYK2; type: biochemical; conditions: read-out: Inhibitory activity TYK2; for inhibition at 0.1 µM: 100 nM
Description: as §1

Chain of TYK2 (P29597 whole entry): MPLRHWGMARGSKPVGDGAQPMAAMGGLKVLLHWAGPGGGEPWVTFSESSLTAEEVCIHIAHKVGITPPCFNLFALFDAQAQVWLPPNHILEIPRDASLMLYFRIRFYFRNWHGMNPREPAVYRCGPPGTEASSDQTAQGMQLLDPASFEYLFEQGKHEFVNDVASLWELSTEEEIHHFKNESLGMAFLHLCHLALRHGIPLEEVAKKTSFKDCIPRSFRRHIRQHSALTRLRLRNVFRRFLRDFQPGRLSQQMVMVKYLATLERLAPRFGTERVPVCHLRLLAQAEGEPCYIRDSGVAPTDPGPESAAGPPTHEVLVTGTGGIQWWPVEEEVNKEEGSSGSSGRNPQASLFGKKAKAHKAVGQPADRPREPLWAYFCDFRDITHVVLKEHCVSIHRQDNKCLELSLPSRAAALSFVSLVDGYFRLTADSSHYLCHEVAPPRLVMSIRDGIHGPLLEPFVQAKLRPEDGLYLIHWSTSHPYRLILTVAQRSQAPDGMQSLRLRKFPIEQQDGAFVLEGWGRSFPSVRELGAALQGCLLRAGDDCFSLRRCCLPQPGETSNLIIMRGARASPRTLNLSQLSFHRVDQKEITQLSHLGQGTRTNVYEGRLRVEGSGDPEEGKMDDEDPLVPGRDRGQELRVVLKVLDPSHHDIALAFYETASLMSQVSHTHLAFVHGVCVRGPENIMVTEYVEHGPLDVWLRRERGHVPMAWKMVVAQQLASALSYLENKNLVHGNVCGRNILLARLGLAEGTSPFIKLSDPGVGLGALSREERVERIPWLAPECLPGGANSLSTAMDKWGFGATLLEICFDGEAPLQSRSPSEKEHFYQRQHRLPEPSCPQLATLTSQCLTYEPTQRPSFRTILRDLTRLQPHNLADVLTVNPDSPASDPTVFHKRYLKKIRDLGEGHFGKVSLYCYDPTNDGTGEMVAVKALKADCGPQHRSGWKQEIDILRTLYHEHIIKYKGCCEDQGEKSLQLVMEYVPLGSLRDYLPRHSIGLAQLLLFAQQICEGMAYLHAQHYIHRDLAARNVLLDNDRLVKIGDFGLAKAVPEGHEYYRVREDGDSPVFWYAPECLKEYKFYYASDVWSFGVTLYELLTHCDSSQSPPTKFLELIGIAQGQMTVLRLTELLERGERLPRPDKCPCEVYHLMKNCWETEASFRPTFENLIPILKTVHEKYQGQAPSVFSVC
Chain of PI4-K-β (Q9UBF8 whole entry): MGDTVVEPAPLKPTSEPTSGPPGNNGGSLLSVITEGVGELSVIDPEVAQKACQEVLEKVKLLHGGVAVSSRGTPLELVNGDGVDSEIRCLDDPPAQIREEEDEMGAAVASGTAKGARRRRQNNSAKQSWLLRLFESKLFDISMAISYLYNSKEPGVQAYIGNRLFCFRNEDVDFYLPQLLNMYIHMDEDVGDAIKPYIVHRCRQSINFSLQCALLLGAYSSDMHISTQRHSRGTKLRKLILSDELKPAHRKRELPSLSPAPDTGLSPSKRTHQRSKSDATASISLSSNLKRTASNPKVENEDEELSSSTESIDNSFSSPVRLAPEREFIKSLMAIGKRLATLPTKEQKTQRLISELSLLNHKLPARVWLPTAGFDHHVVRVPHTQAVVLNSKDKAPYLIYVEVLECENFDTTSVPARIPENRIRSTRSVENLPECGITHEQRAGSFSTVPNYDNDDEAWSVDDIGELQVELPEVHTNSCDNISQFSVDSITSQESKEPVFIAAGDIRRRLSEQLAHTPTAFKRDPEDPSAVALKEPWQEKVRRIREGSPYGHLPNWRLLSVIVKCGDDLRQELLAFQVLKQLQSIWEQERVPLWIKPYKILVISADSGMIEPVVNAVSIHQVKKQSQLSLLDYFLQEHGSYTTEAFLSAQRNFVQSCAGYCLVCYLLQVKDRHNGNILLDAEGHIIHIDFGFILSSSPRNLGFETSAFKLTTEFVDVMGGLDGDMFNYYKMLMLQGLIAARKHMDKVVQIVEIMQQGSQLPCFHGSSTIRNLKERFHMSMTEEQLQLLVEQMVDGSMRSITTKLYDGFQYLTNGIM
Chain of BRAF (P15056 whole entry): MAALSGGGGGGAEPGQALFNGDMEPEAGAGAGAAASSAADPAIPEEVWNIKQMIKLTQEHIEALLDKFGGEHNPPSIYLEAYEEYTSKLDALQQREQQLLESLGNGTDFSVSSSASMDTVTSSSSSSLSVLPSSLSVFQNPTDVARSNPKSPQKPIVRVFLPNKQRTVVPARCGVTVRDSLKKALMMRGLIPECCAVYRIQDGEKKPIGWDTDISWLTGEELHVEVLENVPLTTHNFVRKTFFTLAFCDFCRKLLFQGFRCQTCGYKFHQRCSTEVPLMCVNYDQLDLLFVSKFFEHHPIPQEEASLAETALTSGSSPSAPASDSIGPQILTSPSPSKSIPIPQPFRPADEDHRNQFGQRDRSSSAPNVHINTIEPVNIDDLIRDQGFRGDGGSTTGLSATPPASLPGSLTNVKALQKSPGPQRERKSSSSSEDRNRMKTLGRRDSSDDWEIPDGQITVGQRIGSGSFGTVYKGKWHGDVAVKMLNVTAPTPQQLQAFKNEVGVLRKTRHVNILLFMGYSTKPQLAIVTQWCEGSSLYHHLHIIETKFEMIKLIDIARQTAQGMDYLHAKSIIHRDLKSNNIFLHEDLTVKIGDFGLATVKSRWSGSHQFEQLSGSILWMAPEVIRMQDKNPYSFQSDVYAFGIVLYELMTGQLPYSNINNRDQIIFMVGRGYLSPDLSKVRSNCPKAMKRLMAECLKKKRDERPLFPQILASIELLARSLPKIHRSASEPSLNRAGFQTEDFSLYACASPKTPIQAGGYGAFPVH
Chain of IRR (P14616 27-1297): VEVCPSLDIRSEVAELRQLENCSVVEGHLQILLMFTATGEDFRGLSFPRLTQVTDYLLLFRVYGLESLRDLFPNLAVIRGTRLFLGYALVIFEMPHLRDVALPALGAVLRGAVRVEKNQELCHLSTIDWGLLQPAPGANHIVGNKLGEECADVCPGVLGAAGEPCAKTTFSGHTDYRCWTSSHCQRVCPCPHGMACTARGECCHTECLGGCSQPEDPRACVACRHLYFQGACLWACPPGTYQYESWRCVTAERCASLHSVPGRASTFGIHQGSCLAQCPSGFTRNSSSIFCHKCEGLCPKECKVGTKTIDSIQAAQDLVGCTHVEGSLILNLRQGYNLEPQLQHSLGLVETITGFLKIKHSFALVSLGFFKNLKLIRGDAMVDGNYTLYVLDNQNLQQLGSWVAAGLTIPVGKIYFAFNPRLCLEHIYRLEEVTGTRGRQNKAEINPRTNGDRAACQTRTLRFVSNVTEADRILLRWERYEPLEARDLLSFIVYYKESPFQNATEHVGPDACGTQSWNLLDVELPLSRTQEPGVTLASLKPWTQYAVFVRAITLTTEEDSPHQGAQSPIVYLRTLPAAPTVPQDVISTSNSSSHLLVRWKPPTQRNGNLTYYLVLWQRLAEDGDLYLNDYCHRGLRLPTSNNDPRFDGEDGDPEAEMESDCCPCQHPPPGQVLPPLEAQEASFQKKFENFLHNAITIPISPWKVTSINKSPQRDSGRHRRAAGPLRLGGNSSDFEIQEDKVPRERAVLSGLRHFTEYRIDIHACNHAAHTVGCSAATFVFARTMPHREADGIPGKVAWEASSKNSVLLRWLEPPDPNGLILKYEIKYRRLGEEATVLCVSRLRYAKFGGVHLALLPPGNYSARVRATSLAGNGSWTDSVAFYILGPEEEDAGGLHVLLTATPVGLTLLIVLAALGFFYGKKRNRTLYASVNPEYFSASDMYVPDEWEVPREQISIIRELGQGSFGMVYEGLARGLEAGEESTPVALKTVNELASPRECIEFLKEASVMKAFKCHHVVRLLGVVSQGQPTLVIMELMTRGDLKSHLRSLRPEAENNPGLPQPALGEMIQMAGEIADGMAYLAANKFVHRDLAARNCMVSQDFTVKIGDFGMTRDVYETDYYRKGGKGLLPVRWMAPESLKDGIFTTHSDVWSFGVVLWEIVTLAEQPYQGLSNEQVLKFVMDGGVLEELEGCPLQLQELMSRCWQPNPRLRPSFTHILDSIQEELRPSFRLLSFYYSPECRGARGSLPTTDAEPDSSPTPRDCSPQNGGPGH

Structure (SMILES): COc1cc(-c2cc(-c3ccc(N4CCNCC4)cc3)cnc2C)cc(OC)c1OC [Compound 10, 1-(4-(6-methyl-5-(3,4,5-trimethoxyphenyl)pyridin-3-yl)phenyl)piperazine]
- IC50 [1]: 5530 nM
- inhibition at 0.1 µM [2]: 2%
- inhibition at 1 µM [2]: 21%
- inhibition at 0.1 µM [3]: 0%
- inhibition at 1 µM [3]: 1%
- inhibition at 0.1 µM [4]: 2%
- inhibition at 1 µM [4]: 1%
- inhibition at 0.1 µM [5]: -10%
- inhibition at 1 µM [5]: -15%
- inhibition at 0.1 µM [6]: 2%
- inhibition at 1 µM [6]: 1%

Structure (SMILES): COc1cc(-c2cc(-c3ccc(N4CCNCC4)cc3)cnc2N)cc(OC)c1OC [Compound 15, 5-(4-(piperazin-1-yl)phenyl)-3-(3,4,5-trimethoxyphenyl)pyridin-2-amine]
- IC50 [1]: 25 nM
- inhibition at 0.1 µM [2]: 7%
- inhibition at 1 µM [2]: 38%
- inhibition at 0.1 µM [3]: 8%
- inhibition at 1 µM [3]: 27%
- inhibition at 0.1 µM [4]: 3%
- inhibition at 1 µM [4]: 3%
- inhibition at 0.1 µM [5]: 1%
- inhibition at 1 µM [5]: 1%
- inhibition at 0.1 µM [6]: 0%
- inhibition at 1 µM [6]: 0%
